Experiments:
Assay in all cases: Cell growth assay
Format in all cases: cell-based
[1] = test system: BT-20; details: Homo sapiens, 72 h; BT-20, RAF WT, RAS WT, 3-day; read-out: gIC50
Procedure, shortened: (§1)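 ATP-based CellTiter-Glo detection tracked cell number at 0 and 72 h. The inhibitory potency is expressed as gIC50.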

[2] = test system: BxPc3; details: Homo sapiens, BXPC-3, 72 h; BxPc3, RAF WT, RAS WT, 3-day; read-out: gIC50
Procedure, shortened: as §1

[3] = test system: C32TG; details: Homo sapiens, 72 h, BRAF(V600E), RAS WT, 3-day, read-out: gIC50
Procedure, shortened: as §1

[4] = test system: C3A; details: Homo sapiens, 72 h, RAF WT, RAS WT, 3-day, read-out: gIC50
Procedure, shortened: as §1

[5] = test system: CEM/C1; details: Homo sapiens, 72 h; CEM/C1, RAF WT, RAS WT, 3-day; read-out: gIC50
Procedure, shortened: as §1

[6] = test system: CHP-212; details: Homo sapiens, 72 h; CHP-212, RAF WT, NRAS(Q61K), 3-day; read-out: gIC50
Procedure, shortened: as §1

[7] = test system: Calu-3; details: Homo sapiens, 72 h; Calu-3, RAF WT, RAS WT, 3-day; read-out: gIC50
Procedure, shortened: as §1

[8] = test system: FaDu; details: Homo sapiens, 72 h, RAF WT, RAS WT, 3-day, read-out: gIC50
Procedure, shortened: as §1

[9] = test system: G401; details: Homo sapiens, G-401, 72 h; G401, RAF WT, RAS WT, 3-day; read-out: gIC50
Procedure, shortened: as §1

[10] = test system: H4; details: Homo sapiens, 72 h; H4, RAF WT, RAS WT, 3-day; read-out: gIC50
Procedure, shortened: as §1

[11] = test system: HL-60; details: Homo sapiens, 72 h; HL-60, RAF WT, RAS WT, 3-day; read-out: gIC50
Procedure, shortened: as §1

[12] = test system: HT-1080; details: Homo sapiens, 72 h; HT-1080, RAF WT, RAS WT, 3-day; read-out: gIC50
Procedure, shortened: as §1

[13] = test system: HT-3; details: Homo sapiens, 72 h; HT-3, RAF WT, RAS WT, 3-day; read-out: gIC50
Procedure, shortened: as §1

[14] = test system: HeLa; details: Homo sapiens, 72 h, RAF WT, RAS WT, 3-day, read-out: gIC50
Procedure, shortened: as §1

[15] = test system: IGROV1; details: Homo sapiens, IGROV-1, 72 h; IGROV1, RAF WT, RAS WT, 3-day; read-out: gIC50
Procedure, shortened: as §1

[16] = test system: LNCaP; details: Homo sapiens, 72 h, RAF WT, RAS WT, 3-day, read-out: gIC50
Procedure, shortened: as §1

[17] = test system: MC-IXC; details: Homo sapiens, 72 h, RAF WT, RAS WT, 3-day, read-out: gIC50
Procedure, shortened: as §1

[18] = test system: Molt-4; details: Homo sapiens, 72 h; Molt-4, RAF WT, RAS WT, 3-day; read-out: gIC50
Procedure, shortened: as §1

[19] = test system: NCI-H157; details: Homo sapiens, 72 h; NCI-H157, RAF WT, RAS WT, 3-day; read-out: gIC50
Procedure, shortened: as §1

[20] = test system: NCI-H187; details: Homo sapiens, 72 h; NCI-H187, RAF WT, RAS WT, 3-day; read-out: gIC50
Procedure, shortened: as §1

[21] = test system: NCI-H661; details: Homo sapiens, 72 h; NCI-H661, RAF WT, RAS WT, 3-day; read-out: gIC50
Procedure, shortened: as §1

[22] = test system: OV-90; details: Homo sapiens, 72 h; OV-90, BRAF(del486-490), RAS WT, 3-day; read-out: gIC50
Procedure, shortened: as §1

[23] = test system: OVCAR-3; details: Homo sapiens, 72 h; OVCAR-3, RAF WT, RAS WT, 3-day; read-out: gIC50
Procedure, shortened: as §1

[24] = test system: OVCAR-5; details: Homo sapiens, 72 h; OVCAR-5, RAF WT, RAS WT, 3-day; read-out: gIC50
Procedure, shortened: as §1

[25] = test system: PC-3; details: Homo sapiens, 72 h; PC-3, RAF WT, RAS WT, 3-day; read-out: gIC50
Procedure, shortened: as §1

[26] = test system: RD; details: Homo sapiens, 72 h, RAF WT, RAS WT, 3-day, read-out: gIC50
Procedure, shortened: as §1

[27] = test system: RL; details: Homo sapiens, 72 h, RAF WT, RAS WT, 3-day, read-out: gIC50
Procedure, shortened: as §1

[28] = test system: Raji; details: Homo sapiens, 72 h, RAF WT, RAS WT, 3-day, read-out: gIC50
Procedure, shortened: as §1

[29] = test system: SHP-77; details: Homo sapiens, SHP77, 72 h; SHP-77, RAF WT, KRAS(G12V), 3-day; read-out: gIC50
Procedure, shortened: as §1

[30] = test system: SJRH30; details: Homo sapiens, 72 h; SJRH30, RAF WT, RAS WT, 3-day; read-out: gIC50
Procedure, shortened: as §1

[31] = test system: SK-MES-1; details: Homo sapiens, 72 h; SK-MES-1, RAF WT, RAS WT, 3-day; read-out: gIC50
Procedure, shortened: as §1

[32] = test system: SK-N-DZ(note); details: Homo sapiens, 72 h, RAF WT, RAS WT, 3-day, read-out: gIC50
Procedure, shortened: as §1

[33] = test system: SK-N-F1; details: Homo sapiens, 72 h; SK-N-F1, RAF WT, RAS WT, 3-day; read-out: gIC50
Procedure, shortened: as §1

[34] = test system: SNU-5; details: Homo sapiens, 72 h; SNU-5, RAF WT, RAS WT, 3-day; read-out: gIC50
Procedure, shortened: as §1

In the case of `CC(C)(C)c1nc(-c2cccc(NS(=O)(=O)c3c(F)cccc3F)c2F)c(-c2ccnc(N)n2)s1` [dabrafenib], the IC50 [1] is reported as > 10 µM, the IC50 [2] is reported as > 10 µM and the IC50 [3] is reported as 0.001 µM. The IC50 [4] was 5.41 µM, the IC50 [5] was 1.77 µM and the IC50 [6] was > 10 µM. The IC50 [7] was > 10 µM, the IC50 [8] was > 10 µM and the IC50 [9] was > 10 µM. The IC50 [10] was 0.619 µM, the IC50 [11] was 2.18 µM and the IC50 [12] was 2 µM. For the same compound, the IC50 [13] was > 10 µM, the IC50 [14] was > 10 µM and the IC50 [15] was > 10 µM. The IC50 [16] was > 10 µM, the IC50 [17] was > 10 µM and the IC50 [18] was > 10 µM. For the same compound, the IC50 [19] was > 10 µM, the IC50 [20] was > 10 µM and the IC50 [21] was > 10 µM. For the same compound, the IC50 [22] was 0.029 µM, the IC50 [23] was > 10 µM and the IC50 [24] was > 10 µM. For the same compound, the IC50 [25] was > 10 µM, the IC50 [26] was > 10 µM and the IC50 [27] was > 10 µM. The IC50 [28] was > 10 µM, the IC50 [29] was > 10 µM and the IC50 [30] was > 10 µM. The IC50 [31] was 0.329 µM, the IC50 [32] was > 10 µM and the IC50 [33] was > 10 µM. For the same compound, the IC50 [34] was > 10 µM.

Reference: article PMC3701070 (PLoS ONE, 2013)
